The values below come from patent US20230218608A1, “NEW STRATEGY FOR TREATING PANCREATIC CANCER” (INSERM (INSTITUT NATIONAL DE LA SANTÉ ET DE LA RECHERCHE …, priority 2020, published 2023).

One experiment deals with PDAC cells. The experiment can be described thus: Dose-response viability experiments (Crystal violet viability assay). The class given is cell-based, human. Conditions: 72 h; for Relative cell viability, mean of the treated cells: compared to non-treated cells. As for the experimental part:
We used 21 PDAC primary cells obtained from Patient-Derived Xenografts (PDX) from the PaCaOmics cohort, in which patients were included under the Paoli-Calmettes Institute clinical trial number 2011-A01439-32. Consent forms of informed patients were collected and registered in a central database. PDAC cells were obtained and maintained in serum-free ductal media (SFDM) as described, and incubated at 37° C. in a 5% CO2 incubator. Cell lines were monthly tested for Mycoplasma contamination and found to be negative.
We tested the sensitivity of PDAC cells to three different drugs targeting the FAO pathway: Etomoxir, Perhexiline, and Trimetazidine (all provided by Sigma-Aldrich, Saint-Quentin Fallavier, France), and to the standard chemotherapy Gemcitabine (Gemzar, Eli Lilly & Co).
Cells were seeded in 96-well plates (5,000 cells per well) and 24 h later, the medium was supplemented with increasing concentrations of the drugs in triplicates. For the combination treatment, we used Perhexiline at 5 μM with increasing doses of Gemcitabine. Cell viability was determined 72 h later by Crystal violet viability assay, which is independent from cell metabolism. Briefly, cells were fixed in Glutaraldehyde 1%, washed twice with PBS, stained with crystal violet 0.1% for 10 min, and then washed three times with PBS. Crystals were solubilized in SDS 1%, and absorbance was measured at 600 nm using an Epoch-Biotek spectrophotometer.

The test system of another experiment is PDAC032T xenograft. The experiment is described as follows: Subcutaneous PDAC xenograft, tumor growth. The format is in vivo, mice. To be noted: one month IP; Gemcitabine 120 mg/kg twice a week; low responder. As for the experimental part:
(§1) We assessed the FAO inhibition impact in vivo using the drug Perhexiline in combination with Gemcitabine. We performed subcutaneous xenografts in immunodeficient mice using four different primary PDAC cells. Recipient mice were 6-week-old female Swiss nude mice Crl:Nu(lco)-Foxn1nu purchased from Charles River, France. To obtain the xenografts, subcutaneous tumors from initial mouse donors were removed and finely minced with a scalpel. Then, 150 mg of tumor's pieces were mixed with 50 μl of Matrigel and implanted with a trocar (10 Gauge) in the subcutaneous space of anesthetized mice. Tumor volume was measured twice per week using a digital caliper and using the formula V=lenght×(width)/2. When tumor volume reached 200 mm^3, mice were randomly assigned in a treatment scheme:
(§2) a) Gemcitabine: 120 mg/kg twice a week
(§3) b) Perhexiline: 5 mg/kg every other day
(§4) c) Combination treatment: Gemcitabine plus Perhexiline with the same described indications
(§5) d) Vehicle: PBS in the case of Gemcitabine treatment controls and 3% DMSO in PBS for combination treatment controls.
(§6) Mice were treated by intraperitoneal injection during one month, and mice in which tumor volume reached 1.5 cm^3 during this period were ethically sacrificed and tumors removed.

A further experiment deals with PDAC012T xenograft. The experiment can be described thus: Subcutaneous PDAC xenograft, tumor growth. Conditions: one month IP; Gemcitabine 120 mg/kg twice a week; intermediate responder. The format is in vivo, mice. As for the experimental part: as §1, §2, §3, §4, §5, §6
For another experiment, the system named is PDAC084T xenograft. The experiment is described as follows: Subcutaneous PDAC xenograft, tumor growth. The class given is in vivo, mice. Conditions: one month IP; Gemcitabine 120 mg/kg twice a week, Perhexiline 5 mg/kg every other day; high responder. As for the experimental part: as §1, §2, §3, §4, §5, §6
A further experiment concerns four PDAC xenografts. The experiment can be described thus: Subcutaneous PDAC xenografts, tumor growth (four models overall). The class given is in vivo, mice. Conditions: Perhexiline 5 mg/kg IP every other day, one month. As for the experimental part: as §1, §2, §3, §4, §5, §6
In a further experiment the test system is PDAC084T cells. The experiment can be described thus: Real-time metabolic analysis (Seahorse XF Cell Mito Stress Test). The class given is cell-based, human. To be noted: Perhexiline 10 μM, 6 h. The procedure: We tested the impact of […], and the combination treatment (6 hours) on the mitochondrial respiration in PDAC084T cells. Measurements were performed using the Seahorse Bioscience XFe24 Extracellular Flux Analyzer (Agilent). Sixteen hours before the assay, cells at exponential growth were seeded into Seahorse 24-well plates and cultured at 37° C. with 5% CO2. Six hours before the assay, the media was replaced with vehicle DMSO (0.01%), Gemcitabine (1 μM), Perhexiline (10 μM), or the combination of the two drugs. After 6 h treatment, the media was replaced with OXPHOS assay medium (DMEM without phenol red [Sigma-Aldrich reference D5030], 143 mM NaCl, 2 mM glutamine, 1 mM sodium pyruvate and 10 mM glucose, pH 7.4) and the plate was pre-incubated for 1 h at 37° C. in a non-CO2 incubator. OCR was measured under basal conditions, and then after sequential injections of Oligomycin at 1 μM, carbonyl cyanide-p-trifluoromethox-[…]-hydrazon (FCCP, the concentration was optimized for each cell line), and 0.5 μM of Rotenone plus Antimycin A. Oligomycin is a respiratory Complex V inhibitor that allows to calculate ATP production by mitochondria, and FCCP is an uncoupling agent allowing the determination of the maximal respiration and the spare capacity. […]

A further experiment has as its system four PDAC cells. The experiment can be described thus: AnnexinV/PI apoptosis assay (flow cytometry). The format is cell-based, human. Conditions: Perhexiline 7 μM, 72 h. As for the experimental part:
Cells were seeded in 6-well plates in duplicates (150 000 cells per well) and the day after, the corresponding treatment was administered. We treated four PDAC cells with 7 μM of Perhexiline for 72 h (FIG. 5A), and in combination with 1 μM of Gemcitabine for 24 h for the PDAC084T cells. After the treatment period, cells were detached with Accutase, and resuspended in Annexin V-binding buffer (Biolegend). Cell death was determined using the Annexin V and Propidium Iodide (PI) staining (Biolegend), for apoptosis and necrosis, respectively. Ten thousand events per sample were acquired in a MAC SQuant-VYB (Miltenyi Biotec) and data analysis was done with the FlowJo software.

`CCOC(=O)[C@@]1(CCCCCCOc2ccc(Cl)cc2)CO1` [Etomoxir]: in the experiment with PDAC cells (Etomoxir 62.5 μM), the “Relative cell viability, mean of the treated cells” value is recorded as 0.75.

Turning to `Nc1ccn([C@@H]2O[C@H](CO)[C@@H](O)C2(F)F)c(=O)n1` [Gemcitabine], the Tumor growth entry was “induces tumor regression” in the experiment with PDAC032T xenograft, “arresting the tumor growth” in the experiment on PDAC012T xenograft and “arresting the tumor growth” in the experiment on PDAC084T xenograft.

As for `C1CCC(C(CC2CCCCN2)C2CCCCC2)CC1` (stereo not shown) [Perhexiline], in the experiment on four PDAC xenografts, the “Tumor growth compared with vehicle-injected mice” value is “doesn't have any impact on tumor growth”. Further, the “Decrease of mitochondrial respiration (OCR)” value in the experiment with PDAC084T cells was “about 50%”. Moreover, in the experiment on four PDAC cells, the “Cell death (apoptosis induction)” value is given as “apoptotic inductor”. Besides, in the experiment on PDAC cells (Perhexiline 5 μM alone), the Cell viability entry was “no impacts cell viability”. The “Relative cell viability, mean of the treated cells” value in the experiment on PDAC cells (Perhexiline 7 μM) is given as 0.72.

As to `COc1ccc(CN2CCNCC2)c(OC)c1OC` [Trimetazidine], in the experiment with PDAC cells (Trimetazidine 62.5 μM, compared with non-treated cells), the Relative cell viability entry is “no effect in any cell”.
